Data from article PMC4834642, “Orthogonal ring-closing alkyne and olefin metathesis for the synthesis of small GTPase-targeting bicyclic peptides” (Nature Communications, 2016).
Bridge positions count the residues as written; N and C are the ends. Square brackets hold non-standard residues; d marks the D form. Peptide text beside a SMILES is read from it. S5 = C=CCCC[C@](C)(N)C(=O)O

Experiments:
Rab8a6-176(GppNHp) = target: T1, Rab8a6-176(GppNHp) (Homo sapiens, UniProt P61006); test: Competition fluorescence polarization assay (displacement of labelled peptide 25); type: binding; settings: for Competition with labelled peptide 25 (in words): excess of acetylated peptide added to complex of labelled peptide 25 and Rab8a6-176(GppNHp)
T1 construct: Expression and purification of Rab8a6-176 was performed analog to full-length Rab8a; made in house
T1 sequence (P61006 6-176): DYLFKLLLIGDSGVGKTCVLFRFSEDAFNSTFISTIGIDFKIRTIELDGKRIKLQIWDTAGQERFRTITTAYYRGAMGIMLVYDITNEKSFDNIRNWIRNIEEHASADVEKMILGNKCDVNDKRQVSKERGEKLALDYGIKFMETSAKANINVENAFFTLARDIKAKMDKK
Experimental: Acetylated peptides were serially diluted and incubated with a mixture of the fluorescein-labelled peptide and Rab8a6–176 (GppNHp) at room temperature for 1 h. Fluorescence polarization was determined and IC50 values were calculated by nonlinear regression analysis using Prism 5.0 software (GraphPad)[64].
Rab8a6-176 (GppNHp) was serially diluted in assay buffer and treated with 133 nM fluorescein-labeled peptide. After incubation for 4 h at room temperature the mixture was soaked into capillaries for microscale thermophoresis (MST) measurements. Kd values were calculated after initial fluorescene analysis of the obtained MST curves using the software Monolith Affinity Analysis (NanoTemper Technologies).
Competition fluorescence polarization assay
Acetylated peptides were serially diluted in assay buffer (1:1) and were incubated with a mixture of […] fluorescein-labeled peptide and Rab8a6-176 (GppNHp) (15 µM or 100 µM depending on Kd of the labeled peptide) for 1 h at room temperature.
Fluorescence polarization was dertermined and half maximal inhibitory concentrations (IC50) were calculated by nonlinear regression analysis of dose-response curves using Prism 5.0 software (GraphPad).5

peptide 28 = target: T2, peptide 28 (Homo sapiens, UniProt Q6IQ26); test: fluorescence polarization
T2 chain: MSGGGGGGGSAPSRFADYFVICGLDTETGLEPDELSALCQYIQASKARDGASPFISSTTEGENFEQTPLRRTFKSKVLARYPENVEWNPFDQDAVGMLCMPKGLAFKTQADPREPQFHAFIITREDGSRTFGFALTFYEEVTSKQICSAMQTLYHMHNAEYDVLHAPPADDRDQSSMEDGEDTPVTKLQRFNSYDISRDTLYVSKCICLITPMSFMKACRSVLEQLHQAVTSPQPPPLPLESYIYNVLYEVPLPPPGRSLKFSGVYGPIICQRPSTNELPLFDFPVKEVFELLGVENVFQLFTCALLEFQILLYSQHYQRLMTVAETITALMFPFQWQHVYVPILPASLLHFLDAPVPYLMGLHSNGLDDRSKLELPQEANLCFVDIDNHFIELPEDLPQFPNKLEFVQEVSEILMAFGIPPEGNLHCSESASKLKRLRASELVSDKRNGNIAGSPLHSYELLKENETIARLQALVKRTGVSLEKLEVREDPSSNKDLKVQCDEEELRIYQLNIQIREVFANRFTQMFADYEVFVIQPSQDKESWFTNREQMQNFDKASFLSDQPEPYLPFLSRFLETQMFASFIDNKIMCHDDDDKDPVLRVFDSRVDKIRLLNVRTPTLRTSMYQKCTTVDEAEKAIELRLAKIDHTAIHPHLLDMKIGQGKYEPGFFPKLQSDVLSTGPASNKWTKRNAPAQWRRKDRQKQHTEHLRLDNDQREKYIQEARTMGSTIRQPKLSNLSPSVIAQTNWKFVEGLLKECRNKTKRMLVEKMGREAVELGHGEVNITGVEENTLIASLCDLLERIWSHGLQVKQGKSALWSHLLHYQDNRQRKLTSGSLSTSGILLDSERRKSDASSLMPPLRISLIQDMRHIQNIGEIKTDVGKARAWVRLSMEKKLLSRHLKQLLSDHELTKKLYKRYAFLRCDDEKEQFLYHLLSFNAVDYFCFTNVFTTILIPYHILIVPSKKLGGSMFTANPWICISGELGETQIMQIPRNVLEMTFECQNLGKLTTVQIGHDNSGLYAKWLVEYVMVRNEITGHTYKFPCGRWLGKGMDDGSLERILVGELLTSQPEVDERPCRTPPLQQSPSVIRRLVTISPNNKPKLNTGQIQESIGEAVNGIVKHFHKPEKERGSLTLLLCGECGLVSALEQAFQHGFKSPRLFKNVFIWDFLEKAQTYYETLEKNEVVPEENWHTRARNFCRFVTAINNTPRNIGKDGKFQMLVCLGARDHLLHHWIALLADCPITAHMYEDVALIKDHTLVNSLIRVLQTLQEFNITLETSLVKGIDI

Molecule: CC(=O)N[C@@H](CC(=O)O)C(=O)N[C@@H](CC(=O)O)C(=O)N[C@@H](CCC(=O)O)C(=O)N[C@@]1(C)CCC/C=C\CCC[C@@](C)(C(=O)N[C@@H](Cc2ccc(O)cc2)C(=O)N[C@@H](Cc2c[nH]cn2)C(=O)N[C@@H](CC(C)C)C(=O)N[C@@H](CC(C)C)C(=O)N[C@@H](CO)C(=O)N[C@@H](Cc2ccccc2)C(=O)N[C@@H](CC(N)=O)C(=O)N[C@@H](C)C(=O)N[C@H](C(N)=O)C(C)C)NC(=O)[C@H](Cc2ccccc2)NC(=O)[C@H](CCC(N)=O)NC(=O)[C@H](CCC(=O)O)NC1=O [acetylated StRIP3] (Ac-DDE[S5]EQF[S5]YHLLSFNAV-NH2; staple (Z) 4-8; C-terminus assumed)
- IC50 (Rab8a6-176(GppNHp); acetylated peptide as competitor, fluorescein-labelled peptide 25 (60 nM) bound to Rab8a(GppNHp) 15 μM, 1 h room temperature, triplicates, errors 1σ): 33 µM
- Competition with labelled peptide 25 (in words) (Rab8a6-176(GppNHp)): full displacement of peptide 25

Molecule: CC(=O)N[C@@H](CC(=O)O)C(=O)N[C@@H](CC(=O)O)C(=O)N[C@@H](CCC(=O)O)C(=O)N[C@@H](CCCCN)C(=O)N[C@@H](CCC(=O)O)C(=O)N[C@@H](CCC(N)=O)C(=O)N[C@@H](Cc1ccccc1)C(=O)N[C@@H](CC(C)C)C(=O)N[C@@H](Cc1ccc(O)cc1)C(=O)N[C@@H](Cc1c[nH]cn1)C(=O)N[C@@H](CC(C)C)C(=O)N[C@@H](CC(C)C)C(=O)N[C@@H](CO)C(=O)N[C@@H](Cc1ccccc1)C(=O)N[C@@H](CC(N)=O)C(=O)N[C@@H](C)C(=O)N[C@H](C(N)=O)C(C)C [wt-R6IP] (Ac-DDEKEQFLYHLLSFNAV-NH2; N-terminus and C-terminus assumed)
- Competition with labelled peptide 25 (in words) (Rab8a6-176(GppNHp)): does not compete with peptide 25

B1: Rab8a 6-176 (protein)
chain: DYLFKLLLIGDSGVGKTCVLFRFSEDAFNSTFISTIGIDFKIRTIELDGKRIKLQIWDTAGQERFRTITTAYYRGAMGIMLVYDITNEKSFDNIRNWIRNIEEHASADVEKMILGNKCDVNDKRQVSKERGEKLALDYGIKFMETSAKANINVENAFFTLARDIKAKMDKK
modifications: GppNHp-bound Rab8a; bicyclic alkyne/olefin crosslinked StRIP3 derivative, fluorescein-PEG label
- Kd (peptide 28): 9.6 µM
